Consider 1 substance from US10646528B2, “Method for preparing extract of genus Panax including wild ginseng or ginseng, or cambial meristematic cells derived from genus panax or extract thereof containing rare ginsenosides in high quantity” (WELLKEY HOLDINGS LIMITED, priority 2014, dated 2020).

In this assay the test system is C57BL/6J mice. The assay can be described thus: oral glucose tolerance test (OGTT). To be noted: 2 g/kg D-glucose oral. In kind it is in vivo. Here is the method: The anti-diabetic effect of the wild ginseng CMCs prepared in Example 2 was examined by an oral glucose tolerance test OGTT. Wild ginseng CMCs were heat-treated at 95° C. for 48 hours, and an extract obtained by extracting the CMCs with 70% ethanol was administered orally. C57BL/6J mice (8-week-old, male) were fasted overnight. The weights and blood glucose levels of the C57BL/6J mice were measured, and then 2 g/kg of D-glucose was administered orally to the mice. At this time, the mice were fed with drinking water, but were not fed with feed. A change in the blood glucose level was measured at […] for 2 hours.
The […] was compared with resistant maltodextrin (RMD) and a red ginseng extract (RG-200), which are known as health supplements in the anti-diabetic field.

The substance Resistant maltodextrin [RMD] displayed a Blood glucose level (Time 0, 2 g/kg-treated diabetic group) of 169 mg/dL; a Blood glucose level (Time 30, 2 g/kg-treated diabetic group) of 485 mg/dL; a Blood glucose level (Time 60, 2 g/kg-treated diabetic group) of 350 mg/dL; a Blood glucose level (Time 120, 2 g/kg-treated diabetic group) of 282 mg/dL.
